Reference: ChEMBL document CHEMBL5346939, “Targeting glutaminase 1 (GLS1) by small molecules for anticancer therapeutics” (Eur J Med Chem, 2023)
Blank lines part the entries; values can stand above or below the compound they belong to.

Columns and labels:
[1] = Inhibition of human recombinant Glutaminase
[2] = Inhibition of full length C-terminal His-tagged rat Glutaminase expressed in Escherichia coli BL21 DE3 incubated for 12 hrs
[3] = target: T1, Glutaminase kidney isoform, mitochondrial (Homo sapiens, UniProt O94925); assay: Inhibition of N-terminal His-tagged GLS1 (unknown origin) expressed in Escherichia coli BL21 (DE3) preincubated for 20 mins and measured after 2 hrs
T1 sequence (O94925 whole entry): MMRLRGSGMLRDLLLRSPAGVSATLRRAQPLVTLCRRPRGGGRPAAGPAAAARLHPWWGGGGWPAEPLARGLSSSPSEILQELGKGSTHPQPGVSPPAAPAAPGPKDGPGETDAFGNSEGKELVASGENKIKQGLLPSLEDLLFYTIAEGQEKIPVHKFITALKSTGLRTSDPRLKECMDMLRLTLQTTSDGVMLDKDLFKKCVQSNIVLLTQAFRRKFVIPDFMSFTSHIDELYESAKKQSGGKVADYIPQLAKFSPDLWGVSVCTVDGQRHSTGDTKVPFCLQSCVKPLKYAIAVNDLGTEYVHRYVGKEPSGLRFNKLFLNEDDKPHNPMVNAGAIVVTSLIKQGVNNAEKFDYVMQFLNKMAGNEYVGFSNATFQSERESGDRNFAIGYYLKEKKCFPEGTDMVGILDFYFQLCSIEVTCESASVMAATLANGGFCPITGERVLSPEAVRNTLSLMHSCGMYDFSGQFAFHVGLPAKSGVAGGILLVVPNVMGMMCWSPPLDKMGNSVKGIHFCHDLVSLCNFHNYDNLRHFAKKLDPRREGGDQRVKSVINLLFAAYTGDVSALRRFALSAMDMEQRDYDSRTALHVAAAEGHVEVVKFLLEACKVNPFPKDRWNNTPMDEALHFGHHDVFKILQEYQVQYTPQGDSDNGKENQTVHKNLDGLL

[4] = Inhibition of 6His-tagged recombinant mouse GAC expressed in Escherichia coli preincubated for 10 mins and measured after 45 mins by chromatographic analysis
[5] = Inhibition of N-terminal Histidine-tagged recombinant mouse GAC incubated for 1 hrs by fluorescence based analysis
[6] = Inhibition of N-terminal 6His-tagged recombinant rat glutaminase expressed in Escherichia coli BL-21 DE3 measured after 20 mins by colorimetric analysis
SW1990 = assay: Antiproliferative activity against human SW1990 cells assessed as reduction in cell viability measured after 72 hrs by CCK-8 assay; assay type: functional, cell-based; conditions: SW1990, 72 h
[7] = Lipophilicity, logP of the compound at pH 7.4 by HPLC analysis; assay type: physicochemical; conditions: buffer
[8] = Inhibition of human Glutaminase
HCC1806 = assay: Cytotoxicity against human HCC1806 cells assessed as reduction in cell viability measured after 48 hrs by MTT assay; assay type: functional, cell-based; conditions: HCC1806, 48 h
[9] = target: T1, Glutaminase kidney isoform, mitochondrial; assay: Inhibition of full length C terminal His-tagged human KGA expressed in Escherichia coli BL-21 DE3
[10] = target: T1, Glutaminase kidney isoform, mitochondrial; assay: Inhibition of C-terminal His-tagged human recombinant KGA transformed in Escherichia coli BL21 DE3 at pH 7.4 incubated for 3 hrs

IC50 [1]: ~9.3 µM
SMILES: CN(C)c1ccc(C2Nc3ccc4ccccc4c3C3=C2C(=O)CC(C)(C)C3)cc1Br (stereo not drawn)

IC50 [2]: 36.7 µM
SMILES: CC1(C)CCc2c(ccc3c2O[C@@H]2c4ccc(O)cc4O[C@H]3[C@H]2O)O1

IC50 [3]: 0.1 µM
SMILES: O=C(Cc1ccccc1)Nc1nnc([C@@H]2CCC[C@@H](c3nnc(NC(=O)Cc4ccccc4)s3)C2)s1

IC50 [4]: ~50 µM
SMILES: CN(C)c1ccc(C2Nc3ccc4ccccc4c3C3=C2C(=O)CC(C)(C)C3)cc1 (stereo not drawn)

IC50 [4]: ~20 µM
SMILES: CC(C)c1ccc(C2Nc3ccc4ccccc4c3C3=C2C(=O)CC(C)(C)C3)cc1 (stereo not drawn)

IC50 [5]: 4.5 µM
SMILES: CN(C)c1ccc(C2Nc3ccc4cc(C(C)(C)C)ccc4c3C3=C2C(=O)CC(C)(C)C3)cc1Br (stereo not drawn)

IC50 [6]: 3.3 µM
IC50 (SW1990): 35.3 µM
logP [7]: 3.73
SMILES: O=C(Cc1ccccc1)Nc1nnc(CCSCCc2nnc(NC(=O)Cc3ccccc3)s2)s1

SMILES: O=c1c2ccccc2[se]n1-c1ccccc1 [EBSELEN]
IC50 [8]: 0.009 µM

IC50 [4]: ~10 µM
SMILES: CC1(C)CC(=O)C2=C(C1)c1c(ccc3ccccc13)NC2c1ccc(C(C)(C)C)cc1 (stereo not drawn)

SMILES: COc1ccc2c(c[n+](C)c3c4cc5c(cc4ccc23)OCO5)c1OC [CHELERYTHRINE CHLORIDE]
IC50 [8]: 0.03 µM

IC50 [9]: 6.1 µM
SMILES: C=C1CC[C@]2(C(=O)O[C@@H]3O[C@H](CO[C@@H]4O[C@H](CO)[C@@H](O)[C@H](O)[C@H]4O)[C@@H](O)[C@H](O)[C@H]3O)CC[C@]3(C)C(=CCC4[C@@]5(C)CC[C@H](O[C@@H]6OC[C@H](O[C@@H]7OC[C@H](O)[C@H](O)[C@H]7O[C@@H]7O[C@@H](C)[C@H](O)[C@@H](O)[C@H]7O)[C@H](O)[C@H]6O)C(C)(C)C5CC[C@]43C)C2C1 (stereo partly drawn)
IC50 (HCC1806): 24.9 µM

IC50 (SW1990): 13.1 µM
logP [7]: 2.72
SMILES: O=C(Cc1cccc(OC(F)(F)F)c1)Nc1ccc(CCCCc2nnc(NC(=O)Cc3ccccn3)s2)nn1

IC50 [8]: 0.6 µM
SMILES: CN1CCc2cccc3c2[C@H]1Cc1ccc(O)c(O)c1-3 [APOMORPHINE]

IC50 [10]: 0.2 µM
SMILES: O=c1c2ccccc2[se]n1CCCCCCn1[se]c2ccccc2c1=O
